Calls of active or inactive are those of the source. No cut-off for these calls is given here.
Legend:
[1] = molecular target: T1, Arachidonate 12-lipoxygenase (Rattus norvegicus) (UniProt Q02759); experiment: Inhibition of 12-lipoxygenase was evaluated in rat platelets stimulated by thrombin up to a concentration of 10 uM; NE means No effect
T1 sequence (whole entry): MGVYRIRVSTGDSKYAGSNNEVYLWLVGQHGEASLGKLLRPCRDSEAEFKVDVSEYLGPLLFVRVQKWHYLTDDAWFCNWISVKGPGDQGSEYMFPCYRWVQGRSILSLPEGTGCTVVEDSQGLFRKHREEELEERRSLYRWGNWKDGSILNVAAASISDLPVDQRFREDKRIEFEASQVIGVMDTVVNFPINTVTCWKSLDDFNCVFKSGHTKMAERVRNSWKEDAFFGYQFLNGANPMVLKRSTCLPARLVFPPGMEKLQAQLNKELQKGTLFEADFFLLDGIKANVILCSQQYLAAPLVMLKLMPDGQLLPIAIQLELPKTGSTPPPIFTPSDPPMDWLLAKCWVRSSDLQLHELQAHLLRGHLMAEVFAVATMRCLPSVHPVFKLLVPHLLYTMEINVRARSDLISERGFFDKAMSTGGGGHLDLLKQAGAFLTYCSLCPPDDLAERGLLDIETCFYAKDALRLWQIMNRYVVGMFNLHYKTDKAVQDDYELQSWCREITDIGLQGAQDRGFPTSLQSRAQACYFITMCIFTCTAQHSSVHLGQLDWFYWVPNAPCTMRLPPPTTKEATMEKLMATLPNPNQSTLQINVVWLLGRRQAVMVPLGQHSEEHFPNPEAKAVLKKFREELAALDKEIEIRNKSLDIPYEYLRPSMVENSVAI

[2] = molecular target: T2, Polyunsaturated fatty acid 5-lipoxygenase (Homo sapiens) (UniProt P09917); experiment: Inhibition of 5-lipoxygenase was evaluated in human polymorphonuclear leukocytes stimulated by calcium ionophore A-23187 for formation of 5-HETE at 10 uM; NA means Inactive; type: cell-based
T2 sequence (whole entry): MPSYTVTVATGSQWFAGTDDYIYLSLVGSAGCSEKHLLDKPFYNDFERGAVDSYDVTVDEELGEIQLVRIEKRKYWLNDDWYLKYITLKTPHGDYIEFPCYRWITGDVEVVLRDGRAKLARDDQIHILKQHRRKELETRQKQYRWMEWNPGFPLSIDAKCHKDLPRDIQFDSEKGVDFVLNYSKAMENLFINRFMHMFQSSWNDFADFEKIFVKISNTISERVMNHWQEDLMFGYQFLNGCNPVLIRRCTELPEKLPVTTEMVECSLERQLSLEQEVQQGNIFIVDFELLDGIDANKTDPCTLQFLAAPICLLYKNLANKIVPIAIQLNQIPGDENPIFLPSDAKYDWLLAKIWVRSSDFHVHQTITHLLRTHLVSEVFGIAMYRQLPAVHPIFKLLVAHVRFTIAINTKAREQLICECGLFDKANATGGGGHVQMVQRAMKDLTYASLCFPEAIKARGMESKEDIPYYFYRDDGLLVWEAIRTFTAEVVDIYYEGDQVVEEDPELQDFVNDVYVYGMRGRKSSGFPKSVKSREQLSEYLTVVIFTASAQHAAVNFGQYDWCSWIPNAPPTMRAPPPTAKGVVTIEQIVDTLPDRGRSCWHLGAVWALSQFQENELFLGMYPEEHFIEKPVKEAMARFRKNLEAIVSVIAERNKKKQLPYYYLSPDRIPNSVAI

[3] = molecular target: T2, Polyunsaturated fatty acid 5-lipoxygenase (Homo sapiens); experiment: Inhibition of 5-lipoxygenase was evaluated in human polymorphonuclear leukocytes stimulated by calcium ionophore A-23187 for formation of LTB4 at 10 uM; NA means Inactive; type: cell-based
[4] = molecular target: Cyclooxygenase (Rattus norvegicus) (UniProt P35355+Q63921); experiment: Inhibition of cyclooxygenase was evaluated in rat platelets stimulated by thrombin up to a concentration of 10 uM; NE means No effect
[5] = molecular target: T3, Polyunsaturated fatty acid 5-lipoxygenase (Homo sapiens, UniProt P09917); experiment: Inhibition of 5-lipoxygenase was evaluated in human polymorphonuclear leukocytes stimulated by calcium ionophore A-23187 for formation of 5-HETE; NA means Not active; type: cell-based
T3 sequence (P09917 whole entry): T2 sequence (whole entry)

[6] = molecular target: T3, Polyunsaturated fatty acid 5-lipoxygenase; experiment: Inhibition of 5-lipoxygenase was evaluated in human polymorphonuclear leukocytes stimulated by calcium ionophore A-23187 for formation of LTB4; NA means Not active; type: cell-based
[7] = molecular target: T2, Polyunsaturated fatty acid 5-lipoxygenase (Homo sapiens); experiment: Inhibition of 5-lipoxygenase was evaluated in human polymorphonuclear leukocytes stimulated by calcium ionophore A-23187 for formation of 5-HETE at 10 uM; type: cell-based
[8] = molecular target: T2, Polyunsaturated fatty acid 5-lipoxygenase (Homo sapiens); experiment: Inhibition of 5-lipoxygenase was evaluated in human polymorphonuclear leukocytes stimulated by calcium ionophore A-23187 for formation of LTB4 at 10 uM; type: cell-based
[9] = molecular target: T3, Polyunsaturated fatty acid 5-lipoxygenase; experiment: Inhibition of 5-lipoxygenase was evaluated in human polymorphonuclear leukocytes stimulated by calcium ionophore A-23187 for formation of 5-HETE; type: cell-based
[10] = molecular target: T3, Polyunsaturated fatty acid 5-lipoxygenase; experiment: Inhibition of 5-lipoxygenase was evaluated in human polymorphonuclear leukocytes stimulated by calcium ionophore A-23187 for formation of LTB4; type: cell-based

Structure (SMILES)	Activity [1]	Activity [4]	IC50 [5]	IC50 [6]	inhibition [7]	inhibition [8]	further results
CCCCC/C=C\Cc1ccc(/C=C/C(O)CCC/C=N\O)cc1 (centres undefined)	inactive	inactive					inhibition [2]: inactive; inhibition [3]: inactive
CCCCC/C=C\C\C=C/C=C/C=C/[C@@H](O)CCC/C=N/O	inactive	inactive	Not Active	Not Active			
CCCCC/C=C\C/C=C\C=C\C(O)CCC/C=N/O (centres undefined)					< 40%	60%	
CCCCC/C=C\C\C=C/C=C/C=C/C(O)CCC/C=N/O (racemic)	inactive	inactive					IC50 [9]: 5.4 µM; IC50 [10]: 4.4 µM
CCCCC/C=C\C\C=C/C=C/C=C/C(O)CCC/C=N/OC (centres undefined)	inactive	inactive			95%	95%	
CCCCC/C=C\C\C=C/C=C/C=C/C(CCC/C=N/O)OC (centres undefined)	inactive	inactive	Not Active	Not Active			
CCCCCCCC\C=C/C=C/C=C/C(O)CCC/C=N/O (centres undefined)			Not Active	Not Active			
CCCCC/C=C\C\C=C/C=C/C=C/C(O)CC/C=N\O (centres undefined)	inactive	inactive			95%	95%	
CCCCC/C=C\C\C=C/C=C/C=C/[C@H](O)CCC/C=N/O	inactive	inactive					IC50 [9]: 2.8 µM; IC50 [10]: 3.3 µM
CCCCC/C=C\C\C=C/C=C/C=C/C(O)CCCCC (centres undefined)					95%	95%	

Reference: ChEMBL document CHEMBL1127986, “Synthesis and Biological Evaluation of New Leukotriene Analogs” (Bioorg Med Chem Lett, 1994)
